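Cultured in 96-well plates, cells were exposed to test compound for 48 hours across five concentrations. The concentration for 50% growth inhibition is given as GI50. TGI marks complete inhibition of growth.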
Assays:
Experiment in all cases: DTP human tumour cell line panel, 48 h
[1] = test system: UACC-62 melanoma
[2] = test system: RXF 393 renal
[3] = test system: DU-145 prostate
[4] = test system: MALME-3M melanoma
[5] = test system: HCT-116 colon
[6] = test system: RPMI-8226 leukemia
[7] = test system: SNB-19 CNS
[8] = test system: NCI-H226 lung
[9] = test system: OVCAR-8 ovarian
[10] = test system: SK-OV-3 ovarian

SMILES	GI50 [1] [µM]	TGI [1] [µM]	GI50 [2] [µM]	TGI [2] [µM]	GI50 [3] [µM]	TGI [3] [µM]	GI50 [4] [µM]	TGI [4] [µM]	GI50 [5] [µM]	TGI [5] [µM]	GI50 [6] [µM]	TGI [6] [µM]	GI50 [7] [µM]	TGI [7] [µM]	GI50 [8] [µM]	TGI [8] [µM]	GI50 [9] [µM]	TGI [9] [µM]	GI50 [10] [µM]	TGI [10] [µM]
Fc1ccc2[nH]cc(Cc3c[nH]c4ccc(F)cc34)c2c1	12	28.3	18.2	42.8	27.8	85.7	16.7	33.8	17.8	43.3	21	62.2	20.2	51.9	31.3	92.3	19.4	52		
O=C(CCl)c1ccc([N+](=O)[O-])o1	2.13	5.62	2.2	8.24	2.21	5.01	1.98	4.37	0.519	2.4	0.873		10.6	23.4	2.45	7.05	3.33	18.8	14.9	30.5
CCOC(=O)c1c2c(n(CC(C)C)c1C)-c1nc[nH]c1C(=O)C2=O			13.9	26.8	16.1	29.6	21.1	36.6	5.92	18.8	8.91	21.6	16.4	30.1	15	28.5	15.8	29.3	22.4	37.3
COc1cc2nc(Cl)nc(Nc3cccc(C(=O)/C=C/c4ccccc4)c3)c2cc1OC	2.55	10.1	2.02	5.46	> 48.8	> 100			1.62	5.16	0.622	3.48	2.96	> 31.8	5.81	> 100	4.99	> 100	7.96	51.7
O=C(CCN1CCCC1)Nc1ccc2c(NCc3ccc(F)cc3)c3ccccc3nc2c1	0.827	2.16	0.401	1.61	0.368	1.54	1.11	2.4	0.313	1.35			0.47	1.87	0.57	2.63	0.517	2.86	0.849	3.5
COc1ccc(Cn2nc(-c3cc(OC)c(OC)c(OC)c3)c3c2CCc2cnoc2-3)cc1OC	3.78	56.5	1.63	9.29	13.2	> 100	14.8	> 100	3.63	44	2.69	23	7.99	> 100	6.85	56.1	19.6	> 100	4.36	33

Reference: PubChem BioAssay (NCI)
